Measurements reported in US20120316137A1, “Methods and Compositions for Treating Cancer” (priority 2009, published 2012).
Like-named read-outs stand apart in the source and are kept apart here.

Legend:
[1] = system: KG1 cells (FGFR1-FGFR1OP2 fusion); experiment: Cell growth assay (72 h); format: cell-based; conditions: Homo sapiens
Text: (§1) Data are shown as mean (±SD) from 3 separate experiments tested in triplicate.

[2] = system: OPM2 multiple myeloma cells, mutant FGFR3 (K650E); experiment: cells; conditions: Homo sapiens, OPM-2, read-out: Cell growth GI50 (nM)
Text: as §1

[3] = system: MGH-U3 bladder cancer cells, mutant FGFR3b (Y375C); experiment: Cell growth assay (72 h); format: cell-based
Text: as §1

[4] = system: AN3CA endometrial cancer cells with mutant FGFR2 (N549K); experiment: cells; conditions: Homo sapiens, AN3-CA, read-out: Cell growth GI50 (nM)
Text: as §1

[5] = system: SNU16 gastric cancer cells with amplified FGFR2; experiment: cells; conditions: Homo sapiens, SNU-16, read-out: Cell growth GI50 (nM)
Text: as §1

[6] = system: MDA-MB-453 breast cancer cells, mutant FGFR4 (Y367C); experiment: cells; conditions: Homo sapiens, MDA-MB-453, read-out: Cell growth GI50 (nM)
Text: as §1

[7] = system: FGFR2 signaling in SNU16 gastric cells (Amplified); experiment: cells; conditions: Homo sapiens, SNU-16, read-out: Signaling IC50 (nM)
Text: Cells were lysed in either SDS buffer or Phospho-Safe (Novagen, Gibbstown, N.J.) and protein lysates were immunoprecipitated overnight and/or immunoblotted with the indicated antibodies. Protein expression was quantified using Quantity One software (BioRad, Hercules, Calif.).

[8] = system: MFE-296 endometrial cancer cell line; experiment: Combination cell growth assay (Chou and Talalay); format: cell-based; conditions: MFE-296 cells; cell growth; read-out: 1×EC50 concentration
[9] = system: AN3CA endometrial cancer cell line; experiment: Combination cell growth assay (Chou and Talalay); format: cell-based; conditions: AN3CA cells; cell growth; read-out: 1×EC50 concentration
[10] = system: FGFR2-mutant AN3CA tumor xenograft; experiment: AN3CA xenograft, compound 1 and ridaforolimus (Example 9); format: in vivo, nude mice
Experimental: AN3CA cells were implanted into the right flank of nude mice. […] Mean tumor volumes (±SE; tumor volume=L×W^2×0.5) were calculated for each treatment group.

[11] = system: EOL1 cells (FIP1L1-PDGFRα); experiment: Cell viability assay (72 h); conditions: Homo sapiens, EOL1, 72 h, read-out: Cell viability IC50 (nM)
Experimental: (§2) Exponentially growing cell lines were plated into 96-well plates and incubated overnight at 37° C. […] Fluorescence was measured using a Wallac Victor microplate reader (PerkinElmer, Waltham, Mass.). […] Data are shown as mean (1 SD) from 3 separate experiments, each tested in triplicate.

[12] = system: Kasumi-1 cells (c-KIT N822K); experiment: Cell viability assay (72 h); format: cell-based; conditions: Homo sapiens; Kasumi-1; 72 hours; read-out: Cell viability IC50
Experimental: as §2

RS4;11 cells (wt) = experiment: Cell viability assay (72 h); conditions: Homo sapiens, RS4-11, 72 h, read-out: Cell viability IC50 (nM)
Experimental: as §2

[13] = system: KG1 cells (FGFR1OP2-FGFR1); experiment: Cell viability assay (72 h); conditions: Homo sapiens, KG-1, 72 h, read-out: Cell viability IC50 (nM)
Experimental: as §2

MV4-11 cells (FLT3-ITD) = experiment: Cell viability assay (72 h); conditions: Homo sapiens, MV4-11, 72 h, read-out: Cell viability IC50 (nM)
Experimental: as §2

FGFR4 = FGFR4 (Homo sapiens, UniProt P22455); experiment: Kinase assay (RBC)
FGFR4, sequence (P22455 467-755 limits assumed): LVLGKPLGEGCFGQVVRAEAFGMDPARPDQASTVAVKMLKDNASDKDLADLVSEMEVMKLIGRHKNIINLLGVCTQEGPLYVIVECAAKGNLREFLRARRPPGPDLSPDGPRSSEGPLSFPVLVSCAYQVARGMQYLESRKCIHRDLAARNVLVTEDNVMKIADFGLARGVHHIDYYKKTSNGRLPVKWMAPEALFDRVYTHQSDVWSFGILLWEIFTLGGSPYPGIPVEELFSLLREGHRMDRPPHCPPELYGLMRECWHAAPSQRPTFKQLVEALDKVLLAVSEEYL

[14] = system: mononuclear cells from a CML accelerated phase patient harboring BCR-ABL^T315I; experiment: Hematopoietic colony forming assay; conditions: methylcellulose, 14-18 days
FGFR2 = FGFR2 (Homo sapiens, UniProt P21802); experiment: Kinase assay (RBC); conditions: IC50 (nM), 10 μM ATP
FGFR2, sequence (P21802 481-770 limits assumed): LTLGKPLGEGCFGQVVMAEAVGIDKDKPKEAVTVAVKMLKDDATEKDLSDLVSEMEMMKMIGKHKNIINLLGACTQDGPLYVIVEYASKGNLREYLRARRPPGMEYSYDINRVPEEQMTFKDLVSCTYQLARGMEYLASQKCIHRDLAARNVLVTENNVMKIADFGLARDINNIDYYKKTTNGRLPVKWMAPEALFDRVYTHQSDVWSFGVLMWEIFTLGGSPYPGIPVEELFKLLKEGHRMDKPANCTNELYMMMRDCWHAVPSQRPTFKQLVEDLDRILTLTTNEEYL

[15] = KG-1, read-out: Cell growth GI50 (nM)
[16] = MGH-U3, read-out: Cell growth GI50

| SMILES | GI50 [2] | GI50 [4] | GI50 [5] | GI50 [6] | IC50 [7] | GI50 [3, 16] | other results |
| --- | --- | --- | --- | --- | --- | --- | --- |
| COC(=O)c1ccc2c(c1)NC(=O)/C2=C(\Nc1ccc(N(C)C(=O)CN2CCN(C)CC2)cc1)c1ccccc1 [BIBF 1120] | 297 nM | 684 nM | 496 nM | 1540 nM | 496 nM |  | GI50 [1, 15]: 221 nM; GI50 ([3]; read-out: Cell growth GI50 (nM), MGH-U3): > 1000 nM |
| CO[C@H]1C[C@@H]2CC[C@@H](C)[C@@](O)(O2)C(=O)C(=O)N2CCCC[C@H]2C(=O)O[C@H]([C@H](C)C[C@@H]2CC[C@@H](OP(C)(C)=O)[C@H](OC)C2)CC(=O)[C@H](C)/C=C(\C)[C@@H](O)[C@@H](OC)C(=O)[C@H](C)C[C@H](C)/C=C/C=C/C=C/1C [Ridaforolimus, reference compound] |  |  |  |  |  |  | EC50 [8]: 1 nM; EC50 [9]: 0.4 nM; TGI (%) ([10]; Ridaforolimus 0.3 mg/kg alone): 48%; TGI (%) ([10]; Ridaforolimus 1 mg/kg alone): 70% |
| CNC(=O)c1cc(Oc2ccc(NC(=O)Nc3ccc(Cl)c(C(F)(F)F)c3)cc2)ccn1 [Sorafenib, sorafenib] |  |  |  |  |  |  | IC50 [11]: 0.5 nM; IC50 [12]: 59 nM; IC50 (RS4;11 cells (wt)): > 100 nM; IC50 [13]: > 100 nM; IC50 (MV4-11 cells (FLT3-ITD)): 4 nM |
| COc1cc2c(Oc3ccc4[nH]c(C)cc4c3F)ncnc2cc1OCCCN1CCCC1 [AZD 2171] | 296 nM | 34 nM |  | > 1000 nM | 148 nM | 296 nM | GI50 ([1]; KG-1, KG1, read-out: Cell growth GI50): 23 nM |
| CCN(CC)CCCCNc1ncc2cc(-c3cc(OC)cc(OC)c3)c(NC(=O)NC(C)(C)C)nc2n1 [PD 173074] | 83 nM | 187 nM | 20 nM | 1660 nM |  | 850 nM | GI50 [1, 15]: 10 nM; IC50 (FGFR4): 367 nM |
| Cc1cn(-c2cc(NC(=O)c3ccc(C)c(Nc4nccc(-c5cccnc5)n4)c3)cc(C(F)(F)F)c2)cn1 [nilotinib] |  |  |  |  |  |  | effect on colony formation [14]: neither nilotinib nor dasatinib showed any effect |
| Cc1cc2c(F)c(Oc3ncnn4cc(OC[C@@H](C)O)c(C)c34)ccc2[nH]1 [BMS-540215] | 6200 nM | > 1000 nM | > 1000 nM | > 10000 nM | > 1000 nM | > 1000 nM | IC50 (FGFR2): 202 nM |
| CCN(CC)CCNC(=O)c1c(C)[nH]c(/C=C2\C(=O)Nc3ccc(F)cc32)c1C [Sunitinib, sunitinib] |  |  |  |  |  |  | IC50 [11]: 3 nM; IC50 [12]: 56 nM; IC50 (RS4;11 cells (wt)): > 100 nM; IC50 [13]: > 100 nM; IC50 (MV4-11 cells (FLT3-ITD)): 12 nM |
